Measurements published in US20260309717A1, “PROXIMITY INDUCING SYSTEM AND USES THEREOF” (SORBONNE UNIVERSITE, priority 2022, published 2026).

How the values were obtained:
Assay type in all cases: cell-based
[1] = molecular target: T1, NLS-mCherry-^FIREmate / NES-ECFP-^FIREtag (Halorhodospira halophila, UniProt P16113, A30V/C69G/D97P/F96I, form not given/G21E/G25R/K17N/M100R/M109L/Q41L/Q99S/S72T/T101G/V83A/Y94W/Y98T); assay: Nuclear export of proteins (nucleocytoplasmic trafficking), confocal microscopy, HeLa cells; conditions: 10 μM, 4 min
T1 construct: NLS-mCherry-FIREmate and NES-ECFP-FIREtag in HeLa cells
T1 sequence (P16113 1-114 A30V/C69G/D97P/F96I/G21E/G25R/K17N/M100R/M109L/Q41L/Q99S/S72T/T101G/V83A/Y94W/Y98T): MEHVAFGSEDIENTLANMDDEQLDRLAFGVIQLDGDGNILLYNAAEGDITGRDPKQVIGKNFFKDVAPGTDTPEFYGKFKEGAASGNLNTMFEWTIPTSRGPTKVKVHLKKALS
Procedure: FIGS. 13A-D illustrate the nuclear export of proteins mediated by the proximity inducing system described herein. FIG. 13A is a representation of the experimental design wherein HeLa cell co-expressing NLS-mCherry-FIR_^FIREmate and NES-ECFP-^FIREtag were treated with 10 μM of match (i.e., HBR-2,5DM) and imaged by time-lapse confocal microscopy. FIG. 13B is a graph showing the temporal evolution of the ratio nucleus-to-cytoplasm mCherry fluorescence intensities of n=5 cells from 2 independent experiments. FIG. 13C is a graph showing the temporal evolution of the FIRE signal detected upon addition of HBR-2,5DM at 0 min of n=5 cells from 2 independent experiments. […]
The confocal micrographs were acquired on a Zeiss LSM 980 Laser Scanning Microscope equipped with a plan apochromat 63x/1.4 NA oil immersion objective. […] The images were analyzed using Icy (2.4.0.0) and Fiji (Image J). In short, to track fluorescence signal in a specific organelle, a ROI (region of interest) was determined by masking the signal in the ECFP (Enhanced Cyan Fluorescent Protein) channel with the plug-in HK-means with the following parameters: intensity class equals 100, minimum object size (pixels or px) equals 500, maximum object size (px) equals 1500-3000. […]

[2] = molecular target: T2, mCherry-^FIREtag / ^FIREmate-ECFP-Giantin (Halorhodospira halophila, UniProt P16113, A30V/C69G/D97P/F96I, form not given/G21E/G25R/K17N/M100R/M109L/Q41L/Q99S/S72T/T101G/V83A/Y94W/Y98T); assay: Reversibility of the ternary assembly (washout), time-lapse spinning-disk confocal microscopy, HeLa cells; conditions: 10 μM
T2 construct: FIREmate-ECFP-Giantin(3131-3259) and mCherry-FIREtag in HeLa cells
T2 sequence (P16113 1-114 A30V/C69G/D97P/F96I/G21E/G25R/K17N/M100R/M109L/Q41L/Q99S/S72T/T101G/V83A/Y94W/Y98T): T1 sequence (P16113 1-114 A30V/C69G/D97P/F96I/G21E/G25R/K17N/M100R/M109L/Q41L/Q99S/S72T/T101G/V83A/Y94W/Y98T)
Procedure: HeLa cells co-expressing mCherry-^FIREtag and ^FIREmate-ECFP-Giantin were treated with 10 μM HBR-2,5DM (match1), washed with HBR-2,5DM-free medium and then treated with 10 μM HBIR-3M. Cells were imaged by time-lapse spinning-disk confocal microscopy. FIGS. 9A-D are sets of representative confocal micrographs of untreated cells (9A), cells after addition of HBR-2,5DM (match1) (9B), cells after washout of HBR-2,5DM (match1) (9C), and cells after addition of HBIR-3M (9D). (mCherry: ex/em 561/606-675 nm; FIRE: ex/em 488/508-570 nm). Scale bars are 10 μm.
To test whether formation of the fluorescent ternary assembly could be reversed though removal of the fluorogen, the fusion proteins mCherry-^FIREtag (red fluorescence) and ^FIREmate-ECFP-Giantin (blue fluorescence) were co-expressed in Hela cells (FIG. 9A). Formation of a fluorescent ternary assembly between ^FIREtag, ^FIREmate and HBR-2,5DM was induced by addition of 10 μM of HBR-2,5DM (FIG. 9B). […] The ability to reverse the fluorescence ternary assembly at will allowed to induce repeated catch and release cycles through sequential addition and removal of HBR-2,5DM. The ability to control protein proximity through addition and removal of a molecular inducer of proximity is unprecedented and opens great prospect to control the proximity of two proteins with high temporal resolution.

[3] = system: mCherry-FKBP-^FIREtag / TOM20-^FIREmate / FRB-ECFP-Giantin; assay: Orthogonality with FRB-FKBP-rapamycin CIP system, confocal microscopy, HeLa cells; conditions: simultaneous addition of 10 μM HBR-2,5DM and 500 nM rapamycin
Procedure: FIG. 12A is a representation of the experimental design wherein HeLa cells co-expressing mCherry-FKBP-^FIREtag, TOM20-^FIREmate and FRB-ECFP-Giantin were treated with 10 μM of match (i.e., HBR-2,5DM) and 500 nM rapamycin, and imaged by time-lapse confocal microscopy. FIG. 12B is a set of representative confocal micrographs of cells before and after addition of HBR-2,5DM (match1) and rapamycin (rap) (mCherry: ex/em 561/606-675 nm; FIRE: ex/em 488/508-570 nm; ECFP: ex/em 445/455-499 nm). Scale bars are 20 μm.
The confocal micrographs were acquired on a Zeiss LSM 980 Laser Scanning Microscope equipped with a plan apochromat 63x/1.4 NA oil immersion objective. ZEN software was used to collect the data. The images were analyzed using Icy (2.4.0.0) and Fiji (Image J). In short, to track fluorescence signal in a specific organelle, a ROI (region of interest) was determined by masking the signal in the ECFP (Enhanced Cyan Fluorescent Protein) channel with the plug-in HK-means with the following parameters: intensity class equals 100, minimum object size (pixels or px) equals 500, maximum object size (px) equals 1500-3000. The signal intensity of the ROI was tracked over time for each channel by using plug-in Active Contours. The background signal was subtracted. Data were processed using GraphPad Prism v9.3.0. […]

Compound: Cc1cc(/C=C2\SC(=S)NC2=O)c(C)cc1O [HBR-2,5DM, (Z)-5-(4-hydroxy-2,5-dimethylbenzylidene)-2-thioxo-1,3-thiazolidin-4-one]
- FIRE signal in the cytoplasm [1]: strong cytoplasmic green fluorescence
- cytoplasmic localization of the formed protein complex (nuclear export of NLS-mCherry-^FIREmate) [1]: efficient cytoplasmic localization of the formed protein complex
- dissociation of the fluorescent ternary assembly after washout ([2]; then washing with HBR-2,5DM-free medium): rapid dissociation of the fluorescent ternary assembly
- reversibility of the fluorescent ternary assembly ([2]; then washout): full reversibility
- translocation of mCherry-FKBP-^FIREtag [3]: triggered the translocation of mCherry-FKBP-^FIREtag to the Golgi apparatus and to the mitochondria
